Experiment: not given
Conditions: not given

| SMILES | melting point [°C] |
| --- | --- |
| C=C(C)C(=O)Oc1cccc(-c2cccc(OC(=O)C(=C)C)c2)c1 [(1), 3′-(2-Methylacryloyloxy)biphenyl-3-yl 2-methylacrylate] | 70 |
| C=CC(=O)Oc1cccc(-c2cccc(OC(=O)C=C)c2)c1 [(2), 3′-Acryloyloxybiphenyl-3-yl acrylate] | 48 |
| C=C(C)C(=O)OCCCOc1cccc(-c2cccc(OC(=O)C(=C)C)c2)c1 [(3), 3′-[3-(2-Methylacryloyloxy)propoxy]biphenyl-3-yl 2-methylacrylate] | 49 |
| C=C(C)C(=O)OCCCCc1cc(-c2ccc(OC(=O)C(=C)C)cc2)ccc1OC(=O)C(=C)C [(9), 4′-(2-Methylacryloyloxy)-3-[4-(2-methylacryloyloxy)butyl]biphenyl-4-yl 2-methylacrylate] | 76 |

Experiment: Solubility in nematic LC mixture LCT-06-441 (crystallisation on cooling)
Assay type: physicochemical
Conditions: 5% by weight in LCT-06-441, stirred at 50° C. for ½ hour, then cooled to room temperature without stirring
Description: The solubility of compound (1) is compared with the solubility of the structurally analogous compound (A) known from the prior art (for example EP 1 498 468 A1), in which the polymerisable groups are linked in the para-position to the mesogenic group:
To this end, each compound is dissolved in the commercially available nematic LC mixture LCT-06-441 (Merck KGaA, Darmstadt) in a concentration of 5% by weight with stirring at 50° C. (½ hour) and then cooled to room temperature without stirring.

| SMILES | Solubility (crystallisation behaviour) |
| --- | --- |
| C=C(C)C(=O)Oc1cccc(-c2cccc(OC(=O)C(=C)C)c2)c1 [(1), 3′-(2-Methylacryloyloxy)biphenyl-3-yl 2-methylacrylate] | Crystallises out overnight at RT |
| C=C(C)C(=O)Oc1ccc(-c2ccc(OC(=O)C(=C)C)cc2)cc1 [(A), reference compound] | Immediately crystallises out on cooling to RT |

Reference: patent US8313669B2, “Liquid-crystal display” (Merck Patent Gesellschaft mit Beschränkter Haftung, priority 2007, dated 2012)
